Values quoted from earlier work as cited in paper PMC5087393, “A Toolbox of Genetically Encoded FRET-Based Biosensors for Rapid L-Lysine Analysis” (Sensors (Basel, Switzerland), 2016).

What was measured:
[1] = molecular target: LAO-binding protein from S. typhimurium; parameters: method as in PMID 1400387; conditions: 10 mM NaPi buffer, pH 7.0; read-out: Kd (equilibrium dialysis)
[2] = test system: LAO-binding protein of E. coli; conditions: read-out: Kd (equilibrium dialysis); without permutation and fluorescent proteins; 10 mM KPi buffer, pH 7.0, 50 mM NaCl

For `N=C(N)NCCC[C@H](N)C(=O)O` [L-arginine], the Kd [1] is given as 14 nM and the Kd [2] is given as 1500 nM.

For `N[C@@H](Cc1c[nH]cn1)C(=O)O` [L-histidine], the Kd [1] is given as 500 nM.

For `NCCCC[C@H](N)C(=O)O` [L-lysine], the Kd [1] is listed as 15 nM and the Kd [2] is listed as 3000 nM.
